Data: PubChem BioAssay AID180 (DTP/NCI, 2004)
“And” between values parts separate entries of the source, which are not always exact repeats. Equal entries are not always repeated.

System: BDF1 mice, Adenocarcinoma 755 s.c., tumor weight T/C
Test: NCI In Vivo Anticancer Drug Screen. Data for tumor model Adenocarcinoma 755 (subcutaneous) in B6D2F1 (BDF1) mice
Conditions: endpoint: mean tumor weight, higher = larger tumour
Method in brief: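 Tumor-bearing mice receive test compound while controls get vehicle alone. Antitumor effect is scored from survival or tumor dimensions as a T/C quotient.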

[1] = dose: 25.0 mg/kg/injection, schedule: Q01DX011 (ip), vehicle: carboxymethylcellulose (CMC)

SMILES: N=[N+]=CC(=O)OCC(N)C(=O)O (stereo not drawn)
- T/C (dose: 0.9 mg/kg/injection, schedule: Q01DX011 (ip), vehicle: carboxymethylcellulose (CMC)): 124 % of control
- T/C (dose: 1.8 mg/kg/injection, schedule: Q01DX011 (ip), vehicle: carboxymethylcellulose (CMC)): 111 % of control
- T/C (dose: 2.31 mg/kg/injection, schedule: Q01DX011 (ip), vehicle: carboxymethylcellulose (CMC)): 72 % of control
- T/C (dose: 3.6 mg/kg/injection, schedule: Q01DX011 (ip), vehicle: carboxymethylcellulose (CMC)): 90 % of control and 78 % of control
- T/C (dose: 4.63 mg/kg/injection, schedule: Q01DX011 (ip), vehicle: carboxymethylcellulose (CMC)): 61 % of control
- T/C (dose: 4.8 mg/kg/injection, schedule: Q01DX011 (ip), vehicle: carboxymethylcellulose (CMC)): 62 % of control and 74 % of control
- T/C (dose: 7.2 mg/kg/injection, schedule: Q01DX011 (ip), vehicle: carboxymethylcellulose (CMC)): 28 % of control and 40 % of control and 51 % of control
- T/C (dose: 7.4 mg/kg/injection, schedule: Q01DX011 (ip), vehicle: carboxymethylcellulose (CMC)): 50 % of control
- T/C (dose: 9.25 mg/kg/injection, schedule: Q01DX011 (ip), vehicle: carboxymethylcellulose (CMC)): 50 % of control and 66 % of control
- T/C (dose: 12.33 mg/kg/injection, schedule: Q01DX011 (ip), vehicle: carboxymethylcellulose (CMC)): 23 % of control
- T/C (dose: 18.5 mg/kg/injection, schedule: Q01DX011 (ip), vehicle: carboxymethylcellulose (CMC)): 10 % of control

SMILES: c1ccc2cc(SCCCN3CCOCC3)ccc2c1
- T/C (dose: 37.5 mg/kg/injection, schedule: Q01DX011 (ip), vehicle: methylcellulose (MC)): 90 % of control and 107 % of control
- T/C (dose: 37.5 mg/kg/injection, schedule: Q01DX011 (ip), vehicle: saline): 115 % of control
- T/C (dose: 75.0 mg/kg/injection, schedule: Q01DX011 (ip), vehicle: methylcellulose (MC)): 103 % of control
- T/C (dose: 75.0 mg/kg/injection, schedule: Q01DX011 (ip), vehicle: saline): 59 % of control
- T/C (dose: 150.0 mg/kg/injection, schedule: Q01DX011 (ip), vehicle: methylcellulose (MC)): 70 % of control
- T/C (dose: 150.0 mg/kg/injection, schedule: Q01DX011 (ip), vehicle: saline): 20 % of control

SMILES: CN(C)S(=O)(=O)c1ncc2[nH]cnc2n1
- T/C [1]: 116 % of control
- T/C (dose: 75.0 mg/kg/injection, schedule: Q01DX011 (ip), vehicle: carboxymethylcellulose (CMC)): 98 % of control
- T/C (dose: 225.0 mg/kg/injection, schedule: Q01DX011 (ip), vehicle: carboxymethylcellulose (CMC)): 84 % of control

SMILES: CCCc1c(Cl)nc(Cl)nc1Cl
- T/C (dose: 17.5 mg/kg/injection, schedule: Q01DX011 (ip), vehicle: carboxymethylcellulose (CMC)): 54 % of control
- T/C [1]: 85 % of control
- T/C (dose: 35.0 mg/kg/injection, schedule: Q01DX011 (ip), vehicle: carboxymethylcellulose (CMC)): 104 % of control
- T/C (dose: 50.0 mg/kg/injection, schedule: Q01DX011 (ip), vehicle: carboxymethylcellulose (CMC)): 43 % of control
- T/C (dose: 100.0 mg/kg/injection, schedule: Q01DX011 (ip), vehicle: carboxymethylcellulose (CMC)): 44 % of control

SMILES: CC[C@H](c1ccc(O)cc1)[C@@H](CC)c1ccc(O)cc1
- T/C (dose: 55.0 mg/kg/injection, schedule: Q01DX011 (sc), vehicle: steriod suspending solution): 44 % of control

SMILES: C=CC(=O)NCO
- T/C (dose: 100.0 mg/kg/injection, schedule: Q01DX011 (ip), vehicle: other): 86 % of control
- T/C (dose: 150.0 mg/kg/injection, schedule: Q01DX011 (ip), vehicle: other): 89 % of control
- T/C (dose: 200.0 mg/kg/injection, schedule: Q01DX011 (ip), vehicle: other): 88 % of control

SMILES: O=C1N(Cl)C(=O)C(c2ccc(Cl)cc2)(c2ccc(Cl)cc2)N1Cl
- T/C (dose: 7.5 mg/kg/injection, schedule: Q#A X022 (ip), vehicle: saline): 161 % of control
- T/C (dose: 15.0 mg/kg/injection, schedule: Q01DX011 (ip), vehicle: saline): 100 % of control
- T/C (dose: 15.0 mg/kg/injection, schedule: Q#A X022 (ip), vehicle: saline): 107 % of control
- T/C (dose: 30.0 mg/kg/injection, schedule: Q01DX011 (ip), vehicle: saline): 52 % of control
- T/C (dose: 30.0 mg/kg/injection, schedule: Q#A X022 (ip), vehicle: saline): 67 % of control
- T/C (dose: 45.0 mg/kg/injection, schedule: Q03DX004 (ip), vehicle: saline): 73 % of control
- T/C (dose: 60.0 mg/kg/injection, schedule: Q01DX011 (ip), vehicle: saline): 62 % of control
- T/C (dose: 60.0 mg/kg/injection, schedule: Q#A X022 (ip), vehicle: saline): 28 % of control
- T/C (dose: 90.0 mg/kg/injection, schedule: Q03DX004 (ip), vehicle: saline): 78 % of control
- T/C (dose: 120.0 mg/kg/injection, schedule: Q01DX011 (ip), vehicle: saline): 23 % of control and 28 % of control
- T/C (dose: 180.0 mg/kg/injection, schedule: Q03DX004 (ip), vehicle: saline): 61 % of control
- T/C (dose: 240.0 mg/kg/injection, schedule: Q01DX011 (ip), vehicle: saline): 15 % of control
- T/C (dose: 360.0 mg/kg/injection, schedule: Q03DX004 (ip), vehicle: saline): 36 % of control
- T/C (dose: 480.0 mg/kg/injection, schedule: Q01DX011 (ip), vehicle: saline): 16 % of control
